# According to US20110028719A1, “SCREENING METHODS FOR AMYLOID BETA MODULATORS” (priority 2006, published 2011):
# Target: immobilized Aβ fibrils (Homo sapiens, UniProt P05067)
# Experiment: FAC-MS assay of free Aβ monomer (indicator) binding to immobilized Aβ fibrils in the presence of test compounds
# Conditions: not given
# Sequence of immobilized Aβ fibrils (P05067 672-713 limits assumed): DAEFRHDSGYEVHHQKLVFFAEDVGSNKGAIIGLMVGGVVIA
row,Structure (SMILES),Aβ Shift
1,CC1CCC(C(C)C)C(OC(=O)c2ccccc2N)C1 (centres unmarked),1

# Same assay, conditions: FAC-MS % shift of free Aβ monomer breakthrough on immobilized Aβ fibrils in presence of the compound (screen, Table 2)
row,Structure (SMILES),Aβ Shift
1,Oc1c(I)cc(Cl)c2cccnc12,2

# Same assay, conditions: FAC-MS screen; shift of free Aβ monomer breakthrough on immobilized Aβ fibrils in presence of compound; scale not given
row,Structure (SMILES),Aβ Shift
1,Cc1ccc[n+](CC(=O)OC2CC(C)CCC2C(C)C)c1 (centres unmarked),1
2,CC1C2CC3(C)CC(C(=O)O)(C2)CC1(C)C3 (centres unmarked),1
3,CC1C(C(=O)Nc2ccccc2)CCCC1(C)C(=O)O (centres unmarked),1
4,Cc1cc[n+](CC(=O)OC2CC(C)CCC2C(C)C)cc1 (centres unmarked),1
5,CC1CCC(C(C)C)C(OC(=O)C[n+]2ccccc2)C1 (centres unmarked),1
6,CC1CCC(C(C)C)C(OC(=O)CN2CCOCC2)C1 (centres unmarked),1
7,CC1CCN(CC(=O)OC2CC(C)CCC2C(C)C)CC1 (centres unmarked),1
8,CC1CCCC(NS(=O)(=O)c2cccs2)C1C (centres unmarked),1
9,CC(C)(C)C1CC(C(=O)O)CC(C(C)(C)C)C1 (centres unmarked),1
10,CC(C)=CCCC12CCC(CO)(CO1)C(C)C2 (centres unmarked),1
11,CCCNC(=O)C12CC3(C)CC(C)(CC(C)(C3)C1)C2,1
12,CC(C)NC(=O)C12CC3(C)CC(C)(CC(C)(C3)C1)C2,1
13,CC1CC(NC(=O)c2nc[nH]n2)CC(C)(C)C1 (centres unmarked),1
14,CC12CC3CC(C)(C1)CC(C(=O)N1CCOCC1)(C3)C2,1
15,COC(=O)C12CCC(C)(C(O)C1)C2(C)C (centres unmarked),1
16,CC1CCC(COC(=O)CN2CCOCC2)C(C)C1 (centres unmarked),1
17,CC12CC3(C)CC(C)(C1)CC(NC(=O)NC(C)(C)C)(C2)C3,1
18,CC12CC3(C)CC(C)(C1)CC(NC(=O)N1CCCC1)(C2)C3,1
19,COCCNC(=O)NC12CC3(C)CC(C)(CC(C)(C3)C1)C2,1
20,CNC(=O)C12CC3(C)CC(C)(CC(C)(C3)C1)C2,1
21,COC(=O)CNC(=O)C12CC3(C)CC(C)(CC(C)(C3)C1)C2,1
22,CC1(C(=O)O)CC(C)(C(=O)O)CC(C)(C(=O)O)C1 (centres unmarked),1
23,CC1CCN(C(=O)C23CC4CC(C)(CC(C)(C4)C2)C3)CC1,1
24,CC12CC3CC(C)(C1)CC(C(=O)NC1=NCCS1)(C3)C2,1

row,Structure (SMILES),Aβ Shift
1,CC12CC3(C)CC(C)(C1)CC(C(=O)NCC(=O)O)(C2)C3,1
2,CC1CCC(N(CCCN)Cc2ccco2)CC1C (centres unmarked),1
3,OCC1CC(Cl)CC(Cl)C1O (centres unmarked),0
4,O=C1OC2C3CC([C@@H]2I)[C@@H](CO)C13 (some centres unmarked),0
5,NC12C3C4C5C1C2C(Br)(C43)C51OCCO1 (centres unmarked),0
6,CC(O)C12C3C4C5C1C2C(Br)(C43)C51OCCO1 (centres unmarked),0
7,O=S(=O)(c1ccccc1)C1C2CC3C(C2Cl)C31 (centres unmarked),0
8,O=C(O)C1C2C(=O)OC3C(Cl)C1C1(CC1)C32 (centres unmarked),0
9,BrC1CC2OC2CC1Br (centres unmarked),0
10,COc1ccc(C2(O)C(C)CCCC2C)cc1 (centres unmarked),0
11,CC1CCCC(NC(=O)C2CCCCC2C(=O)O)C1C (centres unmarked),0
12,CC1CCCC(NC(=O)CCC2CCCCC2)C1C (centres unmarked),0
13,CCCCCCCCCC(=O)NC1CCCC(C)C1C (centres unmarked),0
14,CC1CCCC(NC(=O)NC2CCCCC2)C1C (centres unmarked),0
15,CC1CCCC(NC(=O)c2nc[nH]n2)C1C (centres unmarked),0
16,CC1(C)CC(=O)C2=C(C1)CC1(C)CC(C)(C)CC2(O)C1 (centres unmarked),0
17,CC1(C)CC2(C)CC3=C([C@H](CO)C(C)(C)C3)C(CO)(C1)C2 (some centres unmarked),0
18,CC1(C)CC(=O)C2=C(C1)CC1(C)CC(C)(C)CC2(C#N)C1 (centres unmarked),0
19,CC1CC2=C(/C(=N/O)C1)C1(O)CC(C)CC(C)(C2)C1 (centres unmarked),0
20,CC1(C)CC2(C)CC(O)(C1)C13CCC(C)(C)CC1(C2)O3 (centres unmarked),0
21,CC1CC(C(=O)O)CC(C(=O)O)C1 (centres unmarked),0
22,CC(C)(C)C1CC(C(=O)O)CC(C(=O)O)C1 (centres unmarked),0
23,CC1CCN(CC(O)COC2CC(C)CC(C)(C)C2)CC1 (centres unmarked),0
24,CC12CC3(C)CC(C)(C1)CC(C1(C)CC(=O)O1)(C2)C3 (centres unmarked),0

row,Structure (SMILES),Aβ Shift
1,CC(=O)NC12CC3(C)CC(C)(CC(C)(C3)C1)C2,0
2,CC1CC(NC(=O)c2cccs2)CC(C)(C)C1 (centres unmarked),0
3,CC12CC3(C)CC(CC(N)=O)(C1)CC(C(N)=O)(C2)C3,0
4,CC12CC3CC(C)(C1)CC(O)(C3)C2,0
5,CC(N)C12CC3CC(C)(CC(C)(C3)C1)C2 (centres unmarked),0
6,CC1CC(NC(=O)c2cccc3ccccc23)CC(C)(C)C1 (centres unmarked),0
7,CC1CC(OC(=O)/C=C/c2ccccc2)CC(C(C)C)C1 (centres unmarked),0
8,CC1CC(NC(=O)C2CCC2)CC(C)(C)C1 (centres unmarked),0
9,CCCCCCCCC(=O)NC1CC(C)CC(C)(C)C1 (centres unmarked),0
10,CC1CC(NC(=O)C2(C)CC2(Cl)Cl)CC(C)(C)C1 (centres unmarked),0
11,COc1cccc(C(=O)OC2CC(C)CC(C)C2)c1 (centres unmarked),0
12,COc1cccc(OC)c1C(=O)OC1CC(C)CC(C)C1 (centres unmarked),0
13,CC1CC(C)CC(OC(=O)c2ccco2)C1 (centres unmarked),0
14,CC1CCC(O[C@H]2C=CC(=O)O2)C(C(C)C)C1 (some centres unmarked),0
15,CC1CC(C)(C(=O)O)CCC1(C)C (centres unmarked),0
16,Cc1cccc(NC(=O)C23CCC(C)(C(O)C2)C3(C)C)n1 (centres unmarked),0
17,CC1CCC(C(C)C)C(OC(=O)C2C3CCCCC32)C1 (centres unmarked),0
18,CC(C)C(=O)O[C@@H]1[C@@H](OC(=O)C(C)C)[C@H](OC(=O)C(C)C)[C@H](O)[C@H](OC(=O)C(C)C)[C@H]1OC(=O)C(C)C,4
19,CC(C)(C)C(=O)O[C@@H]1[C@@H](OC(=O)C(C)(C)C)[C@H](OC(=O)C(C)(C)C)[C@H](O)[C@H](OC(=O)C(C)(C)C)[C@H]1OC(=O)C(C)(C)C,5
20,CC(=O)O[C@@H]1[C@@H](OC(=O)C(C)(C)C)[C@H](OC(=O)C(C)(C)C)[C@H](OC(C)=O)[C@H](OC(=O)C(C)(C)C)[C@H]1OC(=O)C(C)(C)C,4
21,CCC(=O)O[C@H]1[C@H](OC(=O)CC)[C@@H](OC(=O)CC)[C@H](OC(=O)CC)[C@@H](OC(=O)CC)[C@H]1OC(=O)CC,4
22,CC(C)C(=O)O[C@H]1[C@H](OC(=O)C(C)C)[C@@H](OC(=O)C(C)C)[C@H](OC(=O)C(C)C)[C@@H](OC(=O)C(C)C)[C@H]1OC(=O)C(C)C,5
23,CC(C)(C)C(=O)O[C@H]1[C@H](OC(=O)C(C)(C)C)[C@@H](OC(=O)C(C)(C)C)[C@H](OC(=O)C(C)(C)C)[C@@H](OC(=O)C(C)(C)C)[C@H]1OC(=O)C(C)(C)C,4
24,CC(C)CC(=O)O[C@@H]1[C@@H](OC(=O)CC(C)C)[C@H](OC(=O)CC(C)C)[C@H](O)[C@H](OC(=O)CC(C)C)[C@H]1OC(=O)CC(C)C,2

row,Structure (SMILES),Aβ Shift
1,O=C(O[C@@H]1[C@@H](OC(=O)c2ccccc2)[C@H](OC(=O)c2ccccc2)[C@H](O)[C@H](OC(=O)c2ccccc2)[C@H]1OC(=O)c1ccccc1)c1ccccc1,2
2,CC(=O)O[C@H]1[C@@H](OC(=O)CC(C)C)[C@H](OC(=O)CC(C)C)[C@@H](OC(=O)CC(C)C)[C@H](OC(=O)CC(C)C)[C@H]1OC(=O)CC(C)C,3
3,CC1CCCC(C)C1CO (centres unmarked),1
4,CC12CC3(C)CC(C)(C1)CC(CC(=O)O)(C2)C3,1
5,C=CC1CCC(O)C(O)C1 (centres unmarked),1
6,Cl.NC1C2CC3C1C3C2Cl (centres unmarked),1
7,CC(=O)NC1CC(Cl)CCC1C (centres unmarked),1
8,CC(=O)C1C2CC3C(C2Cl)C31 (centres unmarked),1
9,O=C(O)C1C2CC3C(C2Cl)C31 (centres unmarked),1
10,CC1CCC(C(C)(C)C)C(O)C1 (centres unmarked),1
11,CC12CC3CC(O)(C1)CC(O)(C3)C2,1
12,CC12CC3CC(C)(C1)CC(C(Cl)C(=O)O)(C3)C2 (centres unmarked),1
13,CC1CCC(C(C)C)C(OC(=O)NN)C1 (centres unmarked),1
14,CC1CCC(C(C)C)C(OC(=O)C(O)O)C1 (centres unmarked),1
15,COC(=O)[C@@H]1C[C@H](O)C[C@H](C(=O)OC)C1,1
16,CC1CCC(C(C)CS)CC1S (centres unmarked),1
17,CC(O)C#CC1(O)C(C)CCCC1(C)C (centres unmarked),1
18,CC1CC(C)C(C(=O)c2ccccc2)C(O)C1 (centres unmarked),1
19,OCC1(CO)CCCC(CO)(CO)C1O,1
20,COC1CCC(C(C)=O)C(O)C1 (centres unmarked),1
21,CC12CC3CC(C)(C1)CC(CC(=O)NNC(N)=O)(C3)C2,2
22,CCN(CC)CC12CC3CC(C)(CC(C)(C3)C1)C2,2
23,CC12CC3(C)CC(C)(C1)CC(C(=O)O)(C2)C3,2
24,CC12CC3(C)CC(C)(C1)CC(C(=O)NCCO)(C2)C3,2

row,Structure (SMILES),Aβ Shift
1,CC12CC3CC(C)(C1)CC(c1ccc(O)cc1)(C3)C2,2
2,Cc1ccc(C(=O)OC2CC(C)CCC2C(C)C)cc1C (centres unmarked),2
3,Cc1cccc(NC(=O)C23CC4CC(C)(CC(C)(C4)C2)C3)c1,2
4,CC12CC3(C)CC(C)(C1)CC(C(=O)NC(C)(C)C)(C2)C3,2
5,CC1CCC(C(C)C)C(OC(=O)c2ccncc2)C1 (centres unmarked),1
6,CC12CC3(C)CC(N)(C1)CC(O)(C2)C3,1
7,CN(C)CCNC(=O)C12CC3CC(C)(CC(C)(C3)C1)C2,1
8,CC12CC3(C)CC(C)(C1)CC(N)(C2)C3,1
9,CC12CC3(C)CC(C(=O)O)(C1)CC(C(=O)O)(C2)C3,1
10,CCC12CC3CC(O)(CC(O)(C3)C1)C2,1
11,CC12CC3(C)CC(CC(=O)O)(C1)CC(CC(=O)O)(C2)C3,1
12,CN(C)C(=S)NC(=O)C12CC3CC(C)(CC(C)(C3)C1)C2,1
13,CC1CCC(C(C)C)C(OCC(O)CNC(C)C)C1 (centres unmarked),1
14,CC1CCC(C(C)C)C(OCC(O)CN2CCCCC2)C1 (centres unmarked),1
15,CC1CC2(C)CC(C)C1(CO)CO2 (centres unmarked),1
16,O=C(O)C1CC(C(=O)O)C(C(=O)O)CC1C(=O)O (centres unmarked),1
17,CC12CC3CC(C)(C1)CC(CN1CCOCC1)(C3)C2,1
18,CC1CCC(COC(=O)CN2CCCCC2)C(C)C1 (centres unmarked),1
19,CC1CC(OC(=O)CN2CCCCC2)CC(C)(C)C1 (centres unmarked),1
20,C=CC1CCC(O)C(N(C)C(=S)Nc2ccccc2)C1 (centres unmarked),1
21,CC(NC(=O)C12CC3(C)CC(C)(CC(C)(C3)C1)C2)C(=O)O (centres unmarked),2
